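A five-concentration, 48-hour dose response in 96-well plates underlies each endpoint, interpolated linearly between surrounding concentrations. Here, GI50 denotes the concentration required for 50% inhibition of growth. At the TGI there is no net growth.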
Assays:
Assay in all cases: NCI anticancer screen, dose series, 48 h
[1] = system: HCT-116 colon
[2] = system: HOP-62 NSCLC
[3] = system: HT29 colon
[4] = system: KM12 colon
[5] = system: KM20L2 colon
[6] = system: NCI-H522 lung
[7] = system: SK-MEL-28 melanoma
[8] = system: SN12C renal
[9] = system: SNB-19 CNS
[10] = system: RXF 393 renal

SMILES	TGI [1] [µM]	TGI [2] [µM]	TGI [3] [µM]	TGI [4] [µM]	TGI [5] [µM]	TGI [6] [µM]	TGI [7] [µM]	TGI [8] [µM]	TGI [9] [µM]	TGI [10] [µM]	GI50 [1] [µM]	GI50 [2] [µM]	GI50 [3] [µM]	GI50 [4] [µM]	GI50 [6] [µM]	GI50 [10] [µM]	GI50 [7] [µM]	GI50 [8] [µM]	GI50 [9] [µM]
C1=Cc2nc1c(-c1ccncc1)c1ccc([n-]1)c(-c1ccncc1)c1nc(c(-c3ccncc3)c3ccc([n-]3)c2-c2ccncc2)C=C1.[Zn+2]	> 100	> 100	> 100	> 100	> 100	> 100	> 100	> 100	> 100										
Nc1c(-c2ccc(Cl)cc2Cl)[n+]([O-])c2ccccc2[n+]1[O-]		> 100	> 100	> 100	> 100	> 100	> 100	> 100	> 100										
Cc1cc(Cl)ccc1N=C1NC(=O)C(CC(=O)Nc2ccc(Cl)cc2Cl)S1 (configuration not stated)		> 100	> 100	> 100	> 100		> 100	> 100	> 100										
CC1C=CC(=O)C(n2cc(F)c(=O)[nH]c2=O)O1 (configuration not stated)	29.1	45.7	32.5		37.5		46.8	38.4	53.6	37.8									
COC(=O)[C@]1(C)CCC[C@@]2(C)C1CCC1=CC3(C(C)C)CCC12OO3 (some centres not stated)	> 100	> 100	> 100	> 100	> 100	> 100		> 100	> 100										
O=C(Nc1c(O)[nH]c(=S)[nH]c1=O)c1ccc2ccccc2n1	> 100	> 100	> 100		> 100	> 100	> 100	> 100	> 100										
O=[N+]([O-])c1nccn1COCCF	> 100	> 100	> 100	> 100	> 100	> 100	> 100	> 100	> 100										
CC(C)=CC(=O)Cc1nc2cc(C)c(C)cc2[nH]c1=O	> 100	> 100	> 100	> 100	> 100		> 100	> 100	> 100	> 100									
CC1OC(OCC2COC(O)(Oc3c(-c4ccc(O)c(O)c4)oc4cc(O)cc(O)c4c3=O)C(O)C2O)C(O)C(O)C1O (configuration not stated)	> 100	> 100	> 100	> 100	> 100		> 100	> 100	> 100	> 100									
O=c1cnn2c(n1)sc1ccc3ccccc3c12	> 100	> 100	> 100	> 100	> 100		> 100	> 100	> 100	> 100									
COc1cc(-c2cc(-c3nc4ccc(Cl)cc4[nH]3)[nH]n2)cc(OC)c1OC	12.2	10.7	16.4	10.6		5.73	7.11	15.6	20.4	14.5	3.45	3.11	4.14	3.45	1.9	3.26	2.42	3.06	7.25
COC1=CC(c2ccc[nH]2)=N/C1=C\c1ccc[nH]1		9.27	3.93	12.8		2.68	9.35	19.7	18.4	2.7	0.0238	0.27	< 0.013	0.0698	0.284	0.378	0.774	0.433	3.17
OCC12C3C4C1C1C2C3C41CO (configuration not stated)		> 100	> 100		> 100		> 100	> 100	> 100										
NS(=O)(=O)c1ccc(N2N=C3c4ccccc4CC3C2c2ccc(Cl)cc2)cc1 (configuration not stated)	> 100	47.4	> 100	49.8		28.6	28.7	25.6	> 100	19.7	6.04	21.1	15.7	5.54	8.44	5.07	10	6.75	17.3
C=C1C(=O)O[C@H]2[C@H]1CC/C(COC(=O)NCc1c[nH]c3ccc(Cl)cc13)=C\CC[C@@]1(C)O[C@@H]21	2.61	3.74	2.12	6.28		2.05	3.29	3	14.7	2.76	1.27	1.72	0.625	2.37	0.527	1.37	1.69	1.37	3.72
Cc1[nH]c(=O)[nH]c(=O)c1CO	> 100	> 100	> 100	> 100		> 100	> 100	> 100	> 100	> 100	> 100	> 100	> 100	> 100	> 100	> 100	> 100	> 100	> 100
C[C@@H]1C=C2C(=O)O[C@@H]3CC[C@H](C1)[C@]23O	13.8	63.1	13.4	61.6		9.43	25.8	31.2	93.8	7.97	3.13	17.8	3.46	21.8	2.24		6.17	5.65	22.9
Cc1ccc(C)c(NC(=O)CC/C(=N\NC(=O)C(N)=O)C(C)C(=O)c2ccc(O)cc2)c1 (configuration not stated)	> 100	> 100	> 100	> 100	> 100		> 100	> 100	> 100	> 100									
N#Cc1ccnc(N2C(=O)CC[C@H]2C(=O)N(c2cncc(F)c2)[C@H](C(=O)NC2CC(F)(F)C2)c2ccccc2Cl)c1	> 100	> 100	> 100	> 100		> 100	> 100	> 100	> 100	> 100	29.9	> 100	56.2	67	> 100	> 100	> 100	60.8	> 100
Cc1ccccc1CN1CC=c2ccccc2=N1		> 100	> 100	> 100	> 100		> 100	> 100	> 100										
COc1cc(/C=C2\COc3ccc(O)c(O)c3C2=O)cc(OC)c1	3.61	11.6	8.39	3.58		0.403	10.4	8.24	7.47	3.01	1.56	3.66	2.78	1.54	0.171	1.47	2.97	1.63	2.17
O=C(NC1=NC2C=CC([N+](=O)[O-])=CC2S1)C(=O)Nn1c(=S)[nH]c2ccccc2c1=O (configuration not stated)	> 100	> 100	> 100	> 100		> 100	> 100	> 100	72.7	> 100									
CCC(C)C(NC(=O)C1CCCN1C(=O)C(NC(=O)C(C)N)C(C)C)C(N)=O (configuration not stated)	> 100	> 100	> 100	> 100		> 100	> 100	> 100	> 100	> 100	> 100	> 100	> 100	> 100	> 100	> 100	> 100	> 100	> 100
Cc1ccc(S(=O)(=O)N2CCc3ccc(O)c4c3C2Cc2cc(Cl)ccc2-4)cc1 (configuration not stated)	4.38	5.65	10.8	4.21		2.29	5.84	7.42	14.8	2.49	1.11	1.56	5.61	1.18	0.827	0.83	1.68	1.78	1.48
Cc1ccc(C)c(-c2csc(Nc3ccc(C)c(C)c3)n2)c1	> 100	> 100	> 100	> 100		> 100	> 100	> 100	> 100	> 100	> 100	36.8	> 100	> 100	67.1	24.2	> 100	> 100	77
Cn1cc(C2=C(c3cn(CCN)c4ccccc34)C(=O)NC2=O)c2ccccc21	> 25	> 19.7	15.7	> 20.6		17.2	> 25	> 25	> 25	10.1	5.57	6.07	4.2	6.69	6.01	3.74	7.68	5.87	8.13
O=C1C(=O)C(Br)(Br)C(Br)=C1Br		> 100	38.5	28.6	30.7	6.68	29.7	51.8	> 100										

— PubChem BioAssay (NCI)
